Tests used:
[1] = target: T1, Serine/threonine-protein kinase ULK1 (Homo sapiens) (UniProt O75385); experiment: Selectivity interaction (ActivX KiNativ screen (kinase selectivity in THP-1 cell lysates)) EUB0000639a ULK1; type: subcellular; conditions: lysate, at 1 µM
T1 sequence (whole entry): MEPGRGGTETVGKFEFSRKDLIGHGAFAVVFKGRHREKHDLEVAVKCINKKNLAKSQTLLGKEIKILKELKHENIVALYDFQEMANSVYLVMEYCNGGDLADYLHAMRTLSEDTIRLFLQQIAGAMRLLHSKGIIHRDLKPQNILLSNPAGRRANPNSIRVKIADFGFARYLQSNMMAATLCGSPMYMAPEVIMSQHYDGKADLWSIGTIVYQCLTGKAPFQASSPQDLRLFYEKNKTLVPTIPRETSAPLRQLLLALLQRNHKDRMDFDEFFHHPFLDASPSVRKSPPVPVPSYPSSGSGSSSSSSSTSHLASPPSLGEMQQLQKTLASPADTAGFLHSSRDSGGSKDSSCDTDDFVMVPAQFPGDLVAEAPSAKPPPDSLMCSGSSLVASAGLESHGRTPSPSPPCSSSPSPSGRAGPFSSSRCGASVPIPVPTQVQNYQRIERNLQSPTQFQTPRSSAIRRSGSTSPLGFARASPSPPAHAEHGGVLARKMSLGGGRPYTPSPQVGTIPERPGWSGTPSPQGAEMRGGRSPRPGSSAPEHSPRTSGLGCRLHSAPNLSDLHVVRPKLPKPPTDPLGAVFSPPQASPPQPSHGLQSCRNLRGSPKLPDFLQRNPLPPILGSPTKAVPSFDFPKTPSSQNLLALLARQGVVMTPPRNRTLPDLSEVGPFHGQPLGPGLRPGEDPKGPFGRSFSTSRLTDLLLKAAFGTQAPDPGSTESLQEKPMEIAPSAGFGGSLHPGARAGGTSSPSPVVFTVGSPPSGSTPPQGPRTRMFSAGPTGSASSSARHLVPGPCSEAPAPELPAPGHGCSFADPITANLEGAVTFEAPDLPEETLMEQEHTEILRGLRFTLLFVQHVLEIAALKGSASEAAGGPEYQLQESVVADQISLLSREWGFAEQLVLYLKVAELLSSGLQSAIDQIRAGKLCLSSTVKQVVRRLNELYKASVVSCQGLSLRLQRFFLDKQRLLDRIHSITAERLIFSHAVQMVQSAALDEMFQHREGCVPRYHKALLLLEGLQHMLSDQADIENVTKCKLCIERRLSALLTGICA

[2] = target: T2, Ephrin type-B receptor 4 (Homo sapiens) (UniProt P54760); experiment: Selectivity interaction (KinomeScan (DiscoverX)) EUB0000229b EPHB4; conditions: at 10 µM
T2 sequence (whole entry): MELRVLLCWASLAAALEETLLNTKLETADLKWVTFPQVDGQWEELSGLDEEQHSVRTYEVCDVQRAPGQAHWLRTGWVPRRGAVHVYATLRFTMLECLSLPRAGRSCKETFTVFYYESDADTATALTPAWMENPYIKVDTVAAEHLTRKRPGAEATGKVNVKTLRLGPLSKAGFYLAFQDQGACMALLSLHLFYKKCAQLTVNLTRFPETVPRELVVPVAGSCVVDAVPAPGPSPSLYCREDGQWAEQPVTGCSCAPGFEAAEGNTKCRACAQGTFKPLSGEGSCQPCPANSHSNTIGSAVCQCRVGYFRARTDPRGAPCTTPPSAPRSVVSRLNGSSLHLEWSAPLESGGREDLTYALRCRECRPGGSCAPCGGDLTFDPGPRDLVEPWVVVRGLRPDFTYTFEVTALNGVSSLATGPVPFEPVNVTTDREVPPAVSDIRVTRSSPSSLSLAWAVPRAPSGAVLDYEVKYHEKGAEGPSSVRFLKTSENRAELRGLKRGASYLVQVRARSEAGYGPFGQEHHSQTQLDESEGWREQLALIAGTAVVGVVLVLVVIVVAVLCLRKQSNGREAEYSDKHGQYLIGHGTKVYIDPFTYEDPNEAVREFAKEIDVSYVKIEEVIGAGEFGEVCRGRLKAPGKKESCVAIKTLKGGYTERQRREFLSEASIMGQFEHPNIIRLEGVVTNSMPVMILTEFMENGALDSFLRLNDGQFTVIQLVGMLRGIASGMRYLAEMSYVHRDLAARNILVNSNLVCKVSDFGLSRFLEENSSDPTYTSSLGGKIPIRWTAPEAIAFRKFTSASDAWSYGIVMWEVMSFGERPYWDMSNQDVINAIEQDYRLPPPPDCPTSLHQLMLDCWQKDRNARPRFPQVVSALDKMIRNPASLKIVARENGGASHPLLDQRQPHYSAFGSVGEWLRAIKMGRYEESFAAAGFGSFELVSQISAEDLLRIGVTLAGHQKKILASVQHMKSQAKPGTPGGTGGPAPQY

[3] = target: T3, Inhibitor of nuclear factor kappa-B kinase subunit beta (Homo sapiens) (UniProt O14920); experiment: Selectivity interaction (KinomeScan (DiscoverX)) EUB0001079a IKBKB; conditions: at 1 µM
T3 sequence (whole entry): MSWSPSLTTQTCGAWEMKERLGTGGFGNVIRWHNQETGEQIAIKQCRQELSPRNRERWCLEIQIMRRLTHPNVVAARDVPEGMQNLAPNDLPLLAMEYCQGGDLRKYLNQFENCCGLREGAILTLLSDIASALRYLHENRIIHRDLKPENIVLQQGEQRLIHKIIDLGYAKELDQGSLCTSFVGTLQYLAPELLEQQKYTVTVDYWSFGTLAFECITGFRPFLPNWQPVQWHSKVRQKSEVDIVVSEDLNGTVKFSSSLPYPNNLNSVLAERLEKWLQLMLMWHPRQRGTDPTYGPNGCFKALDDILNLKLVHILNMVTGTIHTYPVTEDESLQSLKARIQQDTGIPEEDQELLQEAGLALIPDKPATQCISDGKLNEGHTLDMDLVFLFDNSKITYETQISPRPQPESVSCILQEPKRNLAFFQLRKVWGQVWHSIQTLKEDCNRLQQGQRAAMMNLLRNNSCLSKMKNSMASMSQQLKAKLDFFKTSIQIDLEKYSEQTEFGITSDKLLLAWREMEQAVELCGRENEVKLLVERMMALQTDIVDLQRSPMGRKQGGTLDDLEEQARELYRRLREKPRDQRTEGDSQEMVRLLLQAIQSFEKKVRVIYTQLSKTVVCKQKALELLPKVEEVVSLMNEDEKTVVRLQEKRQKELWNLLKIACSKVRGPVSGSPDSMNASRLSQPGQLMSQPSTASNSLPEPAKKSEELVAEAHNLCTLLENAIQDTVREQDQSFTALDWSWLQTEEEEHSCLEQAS

[4] = target: Tau-tubulin kinase 1 (Homo sapiens) (UniProt Q5TCY1); experiment: Selectivity interaction (ProQinase) EUB0000171b TTBK1
[5] = target: Activin receptor type-2B (Homo sapiens) (UniProt Q13705); experiment: Selectivity interaction (KinomeScan (DiscoverX)) EUB0000666a ACVR2B; conditions: at 10 µM
[6] = target: High affinity nerve growth factor receptor (Homo sapiens, UniProt P04629); experiment: Selectivity interaction (SelectScreen Kinase Profiling (Thermo Fisher Scientific)) EUB0001558a NTRK1; conditions: at 1 µM
Chain of High affinity nerve growth factor receptor (P04629 33-796 limits assumed): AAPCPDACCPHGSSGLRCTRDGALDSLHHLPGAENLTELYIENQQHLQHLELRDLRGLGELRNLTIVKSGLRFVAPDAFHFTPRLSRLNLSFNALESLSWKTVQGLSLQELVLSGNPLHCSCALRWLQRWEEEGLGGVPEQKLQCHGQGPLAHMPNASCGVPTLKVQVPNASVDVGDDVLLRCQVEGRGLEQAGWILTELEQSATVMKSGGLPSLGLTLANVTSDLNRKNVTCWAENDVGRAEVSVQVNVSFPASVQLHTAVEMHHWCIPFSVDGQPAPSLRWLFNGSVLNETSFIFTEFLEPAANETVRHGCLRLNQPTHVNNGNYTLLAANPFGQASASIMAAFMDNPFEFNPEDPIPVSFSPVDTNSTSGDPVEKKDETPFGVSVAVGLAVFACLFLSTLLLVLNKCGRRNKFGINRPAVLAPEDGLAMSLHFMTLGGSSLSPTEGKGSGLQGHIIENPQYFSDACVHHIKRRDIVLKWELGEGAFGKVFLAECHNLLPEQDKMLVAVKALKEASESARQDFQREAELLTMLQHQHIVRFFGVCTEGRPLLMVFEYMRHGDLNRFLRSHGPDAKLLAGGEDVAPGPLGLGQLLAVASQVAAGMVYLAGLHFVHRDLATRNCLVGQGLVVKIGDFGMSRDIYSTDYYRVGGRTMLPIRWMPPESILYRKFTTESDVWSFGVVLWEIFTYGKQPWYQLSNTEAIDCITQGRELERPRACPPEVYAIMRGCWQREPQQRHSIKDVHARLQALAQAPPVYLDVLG

Chain of Tau-tubulin kinase 1 (Homo sapiens) (Q5TCY1 whole entry): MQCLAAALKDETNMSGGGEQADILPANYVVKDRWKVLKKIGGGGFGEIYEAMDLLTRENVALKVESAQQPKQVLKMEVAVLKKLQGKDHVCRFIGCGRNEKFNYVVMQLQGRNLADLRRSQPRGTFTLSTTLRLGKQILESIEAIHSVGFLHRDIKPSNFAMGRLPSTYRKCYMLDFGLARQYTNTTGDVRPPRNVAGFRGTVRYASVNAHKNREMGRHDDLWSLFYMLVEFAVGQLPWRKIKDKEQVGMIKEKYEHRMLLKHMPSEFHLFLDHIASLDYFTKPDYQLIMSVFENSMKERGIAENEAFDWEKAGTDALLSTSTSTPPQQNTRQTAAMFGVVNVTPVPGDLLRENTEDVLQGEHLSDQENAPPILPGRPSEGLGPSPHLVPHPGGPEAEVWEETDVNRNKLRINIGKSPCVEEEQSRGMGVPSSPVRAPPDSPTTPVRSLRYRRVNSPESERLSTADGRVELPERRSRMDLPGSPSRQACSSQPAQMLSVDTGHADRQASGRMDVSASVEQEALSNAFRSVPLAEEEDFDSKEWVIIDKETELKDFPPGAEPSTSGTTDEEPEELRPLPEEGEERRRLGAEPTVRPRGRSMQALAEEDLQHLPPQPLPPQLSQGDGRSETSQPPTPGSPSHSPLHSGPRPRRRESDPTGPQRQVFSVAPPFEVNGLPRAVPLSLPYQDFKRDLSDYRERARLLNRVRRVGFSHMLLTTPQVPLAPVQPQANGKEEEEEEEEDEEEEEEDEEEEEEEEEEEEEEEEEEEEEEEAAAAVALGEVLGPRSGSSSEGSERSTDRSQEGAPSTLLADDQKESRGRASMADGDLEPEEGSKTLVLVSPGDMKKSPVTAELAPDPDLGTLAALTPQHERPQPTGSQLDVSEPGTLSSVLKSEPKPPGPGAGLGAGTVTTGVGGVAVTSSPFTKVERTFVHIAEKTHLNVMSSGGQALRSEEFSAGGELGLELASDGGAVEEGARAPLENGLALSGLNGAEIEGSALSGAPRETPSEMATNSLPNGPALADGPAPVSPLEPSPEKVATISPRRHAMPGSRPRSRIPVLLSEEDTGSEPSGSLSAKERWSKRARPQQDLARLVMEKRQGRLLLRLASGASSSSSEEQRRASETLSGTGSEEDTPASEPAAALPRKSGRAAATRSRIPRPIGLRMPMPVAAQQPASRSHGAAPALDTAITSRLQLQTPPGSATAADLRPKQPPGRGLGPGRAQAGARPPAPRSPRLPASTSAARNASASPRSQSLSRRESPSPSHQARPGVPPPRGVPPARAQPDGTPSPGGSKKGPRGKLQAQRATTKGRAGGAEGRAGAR
Chain of Activin receptor type-2B (Homo sapiens) (Q13705 whole entry): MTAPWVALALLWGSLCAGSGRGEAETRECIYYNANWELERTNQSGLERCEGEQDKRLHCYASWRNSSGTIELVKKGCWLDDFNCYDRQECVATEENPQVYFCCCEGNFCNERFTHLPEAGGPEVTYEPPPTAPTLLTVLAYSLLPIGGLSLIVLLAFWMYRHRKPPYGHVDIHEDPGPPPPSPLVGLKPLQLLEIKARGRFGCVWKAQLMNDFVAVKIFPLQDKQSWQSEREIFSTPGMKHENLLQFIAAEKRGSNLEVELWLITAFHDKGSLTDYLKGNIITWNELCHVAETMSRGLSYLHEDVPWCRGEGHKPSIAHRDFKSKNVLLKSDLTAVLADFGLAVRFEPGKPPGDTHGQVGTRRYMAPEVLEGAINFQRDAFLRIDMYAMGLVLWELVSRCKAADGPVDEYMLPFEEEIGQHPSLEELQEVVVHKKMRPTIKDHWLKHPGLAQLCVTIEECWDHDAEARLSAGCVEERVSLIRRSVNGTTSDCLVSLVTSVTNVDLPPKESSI

CC[C@@H]1[C@H](F)C(=O)N[C@@H]1COc1nccc2cc(C(N)=O)c(OC)cc12 [ZIMLOVISERTIB]
% of inhibition [1]: -53.5%

COc1cc(N(C)c2ccnc3ccc(C(F)(F)F)cc23)cc(OC)c1OC
% binding [2]: 100%

Nc1cnc(N2CCc3cc(S(=O)(=O)Nc4c(F)cc(Cl)cc4F)cc(N4CCCC4=O)c32)nc1 [TP-020n]
% of control [3]: 96%

C=CC(=O)Nc1cccc(C(=O)Nc2ccc(Nc3cc(-c4[nH]c(SC)nc4C)ccn3)cc2)c1
% of control ([4]; at 1 µM): 102%
% of control ([4]; at 5 µM): 106%

O=C(NOC[C@H](O)CO)c1ccc(F)c(F)c1Nc1ccc(I)cc1F
% of control [5]: 66%

CC(C)(O)[C@H](F)CN1Cc2cc(NC(=O)c3cnn4cccnc34)c(N3CCOCC3)cc2C1=O
% of inhibition [6]: 71%

From ChEMBL document CHEMBL5465560, “Selectivity Literature for EUbOPEN Chemogenomic Library” (2024)
